Data from US20260216135A1, “ANTIVIRAL PHARMACEUTICAL COMPOSITION AND PREPARATION METHOD THEREFOR” (priority 2023, published 2026).
Where two headings read alike, the source gives them in different places.

Experiments:
[1] = tested on: SARS-CoV-2 Delta strain; details: for Viral load, brain tissue, Day 4 / Viral load, lung tissue, Day 2: intragastric BID, mean ± SD
[2] = tested on: 47 safety-related targets; details: read-out: EC50 for 47 safety-related targets (inhibition or activation)
Text: For 78 tests related to 47 safe targets, the experimental methods used included: CAMP assay, calcium flux assay, hormone nuclear receptor assay, kinase binding assay, enzyme activity assay, neurotransmitter transporter assay, ion channel assay, and transporter assay.

[3] = tested on: SARS-CoV-2 Omicron strain (B.1.1.529); experiment: microbe, parasite or virus in culture; details: Severe acute respiratory syndrome coronavirus 2, Vero C1008, read-out: IC50 (μM), Vero E6 Omicron strain (B.1.1.529)
[4] = 200 mg/kg + ritonavir 50 mg/kg, listed as compound of formula (I)

## CC(C)(C)[C@H](NC(=O)C(F)(F)F)C(=O)N1CC2(C[C@H]1C(=O)N[C@H](C#N)C[C@@H]1CCNC1=O)SCCS2 [Compound of formula (I)]
[1]; 50 mg/kg + ritonavir 50 mg/kg
  Viral load, brain tissue, Day 4: 2.88 ± 1.26 log10 copies/mg
  Viral load, lung tissue, Day 2: 7.66 ± 0.27 log10 copies/g
[1]; 50 mg/kg + ritonavir 50 mg/kg, listed as compound of formula (I)
  Viral load, lung tissue, Day 2: 7.66 log10 copies/g
[1]; 200 mg/kg + ritonavir 50 mg/kg
  Viral load, brain tissue, Day 4: 0.99 ± 0.42 log10 copies/mg
  Viral load, lung tissue, Day 2: 6.79 ± 0.30 log10 copies/g
[1]; [4]
  Viral load, brain tissue, Day 4: comparable to that of the uninfected normal group
  Viral load, lung tissue, Day 2: 6.79±0.30 log10 copies/g
[1]; 200 mg/kg, compared with model group
  Histopathological analysis of the lungs: significantly ameliorated lung damage
[1]; mouse, in vivo
  Body weight of mice: not significantly reduced
  Reduction of viral copy number in the lungs compared with the model group: 2.4 log 10 copies/g
  Reduction of viral titer in the lungs compared to the model group: more than 3 log 10 PFU/g
  Virus titer in the brains (plaque assay): no virus titer was detected
[2]
  EC50: > 100 µM
[3]
  IC50: 0.12 µM
